Series [1] addresses T1, Fatty-acid amide hydrolase 1 (Rattus norvegicus, UniProt P97612).
T1 sequence (P97612 whole entry): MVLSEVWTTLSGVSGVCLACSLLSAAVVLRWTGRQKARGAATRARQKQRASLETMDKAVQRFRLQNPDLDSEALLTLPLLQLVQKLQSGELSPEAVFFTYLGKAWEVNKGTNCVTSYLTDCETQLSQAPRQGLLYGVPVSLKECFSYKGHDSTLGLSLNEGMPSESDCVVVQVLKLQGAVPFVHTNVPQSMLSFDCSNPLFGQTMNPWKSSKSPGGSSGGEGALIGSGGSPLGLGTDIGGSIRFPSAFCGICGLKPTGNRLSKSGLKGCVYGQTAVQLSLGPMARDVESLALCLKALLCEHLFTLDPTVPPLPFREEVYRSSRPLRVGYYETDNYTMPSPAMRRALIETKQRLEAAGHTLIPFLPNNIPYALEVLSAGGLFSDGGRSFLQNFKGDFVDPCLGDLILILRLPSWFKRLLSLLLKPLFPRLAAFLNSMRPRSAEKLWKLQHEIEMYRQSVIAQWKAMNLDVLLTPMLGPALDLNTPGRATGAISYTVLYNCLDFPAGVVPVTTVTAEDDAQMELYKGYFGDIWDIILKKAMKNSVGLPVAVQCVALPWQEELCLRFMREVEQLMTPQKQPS
Kind of series: Inhibition of rat FAAH1 incubated for 60 mins.

A short description of series [2]: In vivo inhibition of FAAH in rat assessed as increase in PEA level in brain at 20 mg/kg, po. In kind it is organism-based.
A short description of series [3]: In vivo inhibition of FAAH in rat assessed as increase in AEA level in brain at 20 mg/kg, po. It is filed as organism-based.
Series [4] deals with T2, Fatty-acid amide hydrolase 1 (Homo sapiens, UniProt O00519).
T2 sequence (O00519 whole entry): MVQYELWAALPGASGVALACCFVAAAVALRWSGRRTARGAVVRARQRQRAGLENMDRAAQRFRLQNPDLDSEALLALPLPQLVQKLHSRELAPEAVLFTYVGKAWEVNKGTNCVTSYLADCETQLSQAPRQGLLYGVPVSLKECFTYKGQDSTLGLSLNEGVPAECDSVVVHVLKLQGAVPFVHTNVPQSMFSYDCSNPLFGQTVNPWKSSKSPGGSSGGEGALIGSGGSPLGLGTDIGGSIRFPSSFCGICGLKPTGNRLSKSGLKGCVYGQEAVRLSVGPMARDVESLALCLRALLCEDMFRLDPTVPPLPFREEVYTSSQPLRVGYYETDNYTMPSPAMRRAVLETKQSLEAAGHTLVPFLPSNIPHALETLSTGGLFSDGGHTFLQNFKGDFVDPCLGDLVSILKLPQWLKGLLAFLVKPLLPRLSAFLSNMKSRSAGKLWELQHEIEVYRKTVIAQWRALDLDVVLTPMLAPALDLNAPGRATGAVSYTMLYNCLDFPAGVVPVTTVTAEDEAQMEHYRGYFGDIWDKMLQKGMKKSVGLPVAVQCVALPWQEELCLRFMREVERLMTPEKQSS
Put plainly: Inhibition of human FAAH1 incubated for 60 mins.

The nature of series [5]: Drug accumulation in rat peripheral […] at 20 mg/kg, po. In kind it is ADME, organism-based. As to conditions: in vivo; call rule not given here.
Series [6] can be described thus: In vivo inhibition of FAAH in rat assessed as increase in OEA level in brain at 20 mg/kg, po. In kind it is organism-based.
Series [7] is described as follows: Drug accumulation in rat CNS at 20 mg/kg, po. In kind it is ADME, organism-based, Central nervous system. As to conditions: in vivo.

pIC50: −log10 of the molar value.

For the compound `O=C(Nc1noc2ccccc12)N1CC[C@@H]2CN(Cc3cccc(Oc4ccc(Cl)cc4)c3)C[C@H]2C1`, the pIC50 in series [1] is 7.55; in series [4], 6.63. Moreover, the “inhibition (INH)” value in series [2], in series [3] and in series [6] was “Not Active” each time. Further, the Drug uptake result in series [5] and in series [7] was “Not Active” each time.

A word on the pIC50: it is −log10 of the IC50, conventionally taken in molar units. A high value points to a low IC50.

These data come from ChEMBL document CHEMBL4725341, “Heteroarylureas with fused bicyclic diamine cores as inhibitors of fatty acid amide hydrolase” (Bioorg Med Chem Lett, 2020).
